Data as given in ChEMBL document CHEMBL5303304, “EUbOPEN Chemogenomics Library - IncuCyte” (2023).

Columns and labels:
Assay type in all cases: toxicity, cell-based
[1] = system: Fibroblast; test: Incucyte cell viability with human fibroblast; details: 10 µM, compound concentration 10 uM
[2] = system: U2OS; test: Incucyte cell viability with U2OS; details: human, 10 µM, compound concentration 10 uM
[3] = system: HEK-293T; test: Incucyte cell viability with HEK293T; details: human, 10 µM, compound concentration 10 uM
Also: unitless GR value; below 1 slowed growth and below 0 cell loss.

Row | Compound | Growth Rate ([1]; 0 h, replicate number 1) | Growth Rate ([1]; 0 h, replicate number 2) | Growth Rate ([2]; 6 h, replicate number 1) | Growth Rate ([2]; 12 h, replicate number 1) | Growth Rate ([2]; 18 h, replicate number 1) | Growth Rate ([2]; 18 h, replicate number 2) | Growth Rate ([2]; 24 h, replicate number 1) | Growth Rate ([2]; 24 h, replicate number 2) | Growth Rate ([3]; 0 h, replicate number 1) | Growth Rate ([1]; 6 h, replicate number 2) | Growth Rate ([1]; 12 h, replicate number 1) | Growth Rate ([1]; 12 h, replicate number 2) | Growth Rate ([1]; 18 h, replicate number 2) | Growth Rate ([2]; 0 h, replicate number 1) | Growth Rate ([2]; 0 h, replicate number 2) | Growth Rate ([2]; 6 h, replicate number 2) | Growth Rate ([2]; 12 h, replicate number 2) | Growth Rate ([3]; 12 h, replicate number 2) | Growth Rate ([3]; 18 h, replicate number 2) | Growth Rate ([1]; 6 h, replicate number 1) | also measured
1 | O=C(Nc1ccnc(NC(=O)C2CC2)c1)c1c(Cl)cccc1Cl | -0.14 | -0.81 | 0.46 | -0.05 | 0.81 | 0.93 | 0.98 | 0.84 | -0.99 |  |  |  |  |  |  |  |  |  |  |  | 
2 | O=C(O)CNC(=O)c1c(O)c2ccccc2n(Cc2ccccc2)c1=O |  | 0.56 |  | 0.92 | 0.86 | 0.9 |  | 0.97 | -0.08 | 0.61 | 0.75 | 0.68 | 0.94 | 0.29 | 0.34 | 0.74 | 0.94 | 0.91 | 0.99 |  | Growth Rate ([3]; 0 h, replicate number 2): -0.1; Growth Rate ([3]; 24 h, replicate number 2): 0.93
3 | N#Cc1cccc(-c2c[nH]c3ncnc(N4CCOCC4)c23)c1 | -0.42 | -0.76 | 0.91 | 0.88 | 0.31 | 0.94 | 0.97 | 0.98 | -0.86 |  |  |  |  |  |  |  |  |  |  |  | 
4 | Nc1nccc(-c2c(-c3ccc(F)cc3)ncn2C2CCN(Cc3ccon3)CC2)n1 |  | -0.11 | 0.99 |  |  | 0.72 |  | 0.66 | 0.09 |  |  |  |  |  |  | 0.8 | 0.75 |  |  |  | Growth Rate ([3]; 6 h, replicate number 2): 0.91
5 | Clc1ccc(-c2nc3sccn3c2/C=N/OCc2ccc(Cl)c(Cl)c2)cc1 |  | 0.32 |  | 0.92 | 0.87 | 0.95 |  | 0.93 | -0.74 |  | 0.58 |  |  | 0.48 |  | 0.91 | 0.89 | 1 |  | 0.02 | Growth Rate ([1]; 18 h, replicate number 1): 0.63; Growth Rate ([1]; 24 h, replicate number 1): 0.85; Growth Rate ([3]; 0 h, replicate number 2): -0.64; Growth Rate ([3]; 6 h, replicate number 2): 1
6 | CCOP(=O)(OCC)C(=Cc1cc(C(C)(C)C)c(O)c(C(C)(C)C)c1)P(=O)(OCC)OCC |  | 0.24 |  |  |  | 0.75 |  | 0.77 | 0.16 | 0.08 | 0.78 |  | 0.7 |  | 0.17 | 0.36 | 0.63 | 0.55 | 0.79 | 0.57 | Growth Rate ([1]; 18 h, replicate number 1): 0.39; Growth Rate ([1]; 24 h, replicate number 1): 0.61; Growth Rate ([3]; 0 h, replicate number 2): -0.99; Growth Rate ([3]; 6 h, replicate number 2): 0.25; Growth Rate ([3]; 18 h, replicate number 1): 0.94; Growth Rate ([3]; 24 h, replicate number 2): 0.95
7 | Cc1ccc(S(=O)(=O)O)cc1.Cn1cc(Nc2nccc(N3CC4CCC(C3)N4C(=O)[C@@H]3CC3(F)F)n2)cn1 | 0.69 | 0.55 | 0.03 | -0.28 |  | 0.84 |  | 0.8 | 0.13 | 0.12 | 0.8 | 0.69 | 0.88 |  | 0.58 | 0.95 | 0.96 |  | 0.98 | 0.01 | Growth Rate ([1]; 18 h, replicate number 1): 0.4; Growth Rate ([1]; 24 h, replicate number 1): 1; Growth Rate ([3]; 6 h, replicate number 2): 0.93
8 | COc1ccc(C(=O)N[C@H](C)c2cccc(C(=O)Nc3nc4c(s3)CN(C)CC4)c2)cc1C.O=C(O)C(F)(F)F | 0.21 | -0.72 |  |  |  | 0.97 |  | 0.88 | -0.36 |  |  |  |  |  |  |  |  |  |  |  | 
9 | CC(=O)c1ccc2c(c1)/C(=C(/Nc1cccc(C#N)c1)c1ccc3c(c1)OCCO3)C(=O)N2 | 0.26 | -0.78 |  |  | 0.73 | 0.5 | 0.52 | 0.43 | -0.8 |  |  |  |  |  |  |  | 0.72 | 0.12 | -0.03 |  | Growth Rate ([1]; 24 h, replicate number 2): 0.84; Growth Rate ([3]; 6 h, replicate number 1): 0.26; Growth Rate ([3]; 6 h, replicate number 2): 0.65; Growth Rate ([3]; 12 h, replicate number 1): -0.22; Growth Rate ([3]; 18 h, replicate number 1): -0.15; Growth Rate ([3]; 24 h, replicate number 1): -0.16; Growth Rate ([3]; 24 h, replicate number 2): -0.02
10 | COc1cc2ncnc(N[C@H](C)c3ccccc3)c2cc1OC1CCN(S(C)(=O)=O)CC1.Cl | 0.4 |  | 0.77 | 0.89 | 0.8 |  | 0.74 |  | 0.37 | 0.39 |  | 0.61 |  | 0.65 |  |  |  | 0.89 |  |  | Growth Rate ([3]; 0 h, replicate number 2): -0.04
11 | COc1c(NC(=O)c2cc3cccc(Oc4ccnc(C(=O)N5CCN(C)CC5)c4)c3n2C)cc(C(C)(C)C)cc1NS(C)(=O)=O |  |  | 0.82 | 0.79 | 0.83 | 0.7 | 0.84 | 0.69 | 0.87 | 0.43 |  | 0.98 |  | -0.03 | 0.57 | 0.58 | 0.69 | 0.77 | 0.93 | 0.02 | Growth Rate ([3]; 0 h, replicate number 2): -0.84; Growth Rate ([3]; 6 h, replicate number 1): 0.93; Growth Rate ([3]; 6 h, replicate number 2): 0.57
12 | C[C@H](CCOc1cccc(CC(=O)O)c1)N(Cc1cccc(C(F)(F)F)c1Cl)CC(c1ccccc1)c1ccccc1.Cl | 0.93 |  | 0.93 |  | 0.83 |  | 0.93 |  | -0.43 | 0.01 | 0.72 | 0.55 | 0.23 | 0.53 | -0.96 | 1 |  |  | 1 | 0.72 | Growth Rate ([1]; 18 h, replicate number 1): 0.83; Growth Rate ([1]; 24 h, replicate number 1): 0.64; Growth Rate ([1]; 24 h, replicate number 2): 0.52
13 | CN(C)c1ncc2cc(-c3ccc(-c4ncccc4F)cc3Cl)c(=O)n(C[C@H]3OC[C@H](N)CO3)c2n1 | -0.2 | -0.89 |  |  |  | 0.99 |  |  | -1 |  |  |  |  |  |  |  | 0.96 |  |  |  | 
14 | COc1cc(-c2cn[nH]c2)ccc1C(=O)Nc1ccc2c(c1)CCNCC2.Cl | 0.68 | 0.05 |  | 0.82 | 0.75 | 0.59 | 0.87 | 0.63 | -0.67 |  |  |  |  |  |  | 0.77 | 0.78 |  |  |  | 
15 | NC(=O)c1sc2nc(N3CCC(NC[C@H](O)c4ccccn4)CC3)cc(C(F)(F)F)c2c1N | 0.86 | 0.11 |  | 0.93 |  | 0.69 |  | -0.15 | -0.64 |  | 0.88 |  |  | 0.49 | 0.65 | -0.12 | 0.54 |  |  |  | 
16 | CC(=O)O.NCCCc1c(C(=O)O)[nH]c2ccc(C(=O)Nc3ccccc3)cc12 | 0.6 |  | 0.76 | 0.87 | 0.92 |  | 0.93 |  | 0.19 | 0.33 |  | 0.82 | 0.71 | 0.53 |  |  |  | 0.96 | 0.93 | 0.95 | Growth Rate ([1]; 18 h, replicate number 1): 0.95; Growth Rate ([1]; 24 h, replicate number 2): 0.77; Growth Rate ([3]; 0 h, replicate number 2): 0.53
17 | COC(=O)Nc1nc2c(s1)-c1c(c(-c3cccnc3)nn1-c1ccc(C3(N(C)C)CC3)cc1)CC2.Cl.Cl | -0.29 | -1 |  |  |  | 0.74 |  | 0.64 | -1 |  |  |  |  | -0.99 |  |  | 0.96 |  |  |  | 
18 | Cc1ccc(C(=O)Nc2cc(N3CCN(C)CC3)cc(C(F)(F)F)c2)cc1-n1cc(-c2cnn(C)c2C)nn1.Cl |  | 0.61 | 0.35 | 0.71 | 0.92 | 0.73 | 0.82 | 0.66 | -0.85 | -0.05 | 0.43 | 0.19 | 0.15 | 0.94 |  | 0.77 | 0.58 |  |  | 0.66 | Growth Rate ([1]; 18 h, replicate number 1): 0.22; Growth Rate ([1]; 24 h, replicate number 1): 0.44; Growth Rate ([1]; 24 h, replicate number 2): 0.18
